ChEMBL document CHEMBL5725366, “Oxindole compounds carrying a nitrogen-bound spiro substituent and use thereof for treating vasopressin-related diseases” (2017)

Target: T1, Vasopressin V1b receptor (Homo sapiens, UniProt P47901)
T1 sequence (P47901 whole entry): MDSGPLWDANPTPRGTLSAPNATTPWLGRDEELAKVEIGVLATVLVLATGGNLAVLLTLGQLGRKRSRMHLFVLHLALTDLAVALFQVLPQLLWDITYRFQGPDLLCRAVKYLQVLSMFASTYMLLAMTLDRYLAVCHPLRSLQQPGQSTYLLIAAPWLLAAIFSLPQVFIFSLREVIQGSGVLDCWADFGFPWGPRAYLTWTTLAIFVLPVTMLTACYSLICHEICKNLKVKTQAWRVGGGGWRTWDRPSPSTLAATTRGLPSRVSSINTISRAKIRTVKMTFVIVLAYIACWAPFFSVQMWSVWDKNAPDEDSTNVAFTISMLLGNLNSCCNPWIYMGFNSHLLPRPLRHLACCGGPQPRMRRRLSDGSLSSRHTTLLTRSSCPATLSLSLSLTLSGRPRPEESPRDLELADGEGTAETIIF
Assay: The nonspecific binding was determined with 1 μM AVP (Fluka 94836). All determinations were carried out as duplicate determinations. […] The liquid scintillation measurement took place in a Microbeta TriLux 12 (Wallac).

| SMILES | Ki |
| --- | --- |
| CCOc1ccc(OC)c(C2(N3CC4(CN(C5CCN(C)CC5)C4)C3)C(=O)N(S(=O)(=O)c3ccc(OC)cn3)C3C=CC(C#N)=CC32)c1 (racemic; form 1) | in the range around 5.5 nM |
| COc1ccc(S(=O)(=O)N2C(=O)C(c3cccnc3OC(C)(F)F)(N3CC4(CN(C5CCN(C)CC5)C4)C3)C3C=C(C#N)C=CC32)nc1 (racemic) | in the range around 5.5 nM |
| CCOc1ccc(OC)cc1[C@]1(N2CC3(CN(C4CCN(C)CC4)C3)C2)C(=O)N(S(=O)(=O)c2ccccn2)C2C=CC(C#N)=CC21 (stereo not given in full) | in the range around 5.5 nM |
| CCOc1ccc(OC)cc1C1(N2CC3(CN(N4CCN(C5COC5)CC4)C3)C2)C(=O)N(S(=O)(=O)c2ccc(OC)cn2)C2C=CC(C#N)=CC21 (racemic) | in the range around 5.5 nM |
| CCOc1ccc(OC)c(C2(N3CC4(CN(C5CCN(C)CC5)C4)C3)C(=O)N(S(=O)(=O)c3ccc(OC)cc3)C3C=CC(C#N)=CC32)c1 (stereo not given) | in the range around 5.5 nM |
| CCOc1ccc(OC)c(C2(N3CC4(CN(C5CCN(C)CC5)C4)C3)C(=O)N(S(=O)(=O)c3ccc(OC)cn3)C3C=CC(C#N)=CC32)c1 (racemic; form 2) | in the range around 5.5 nM |
| CCOc1ccc(OC)cc1[C@]1(N2CC3(CN(C4CCN(C)CC4)C3)C2)C(=O)N(S(=O)(=O)c2ccc(OC)nc2)C2C=CC(C#N)=CC21 (stereo not given in full) | in the range around 5.5 nM |
| CCOc1ccc(OC)c(C2(N3CC4(CN(C5CCN(C6COC6)CC5)C4)C3)C(=O)N(S(=O)(=O)c3ccc(OC)cn3)C3C=CC(C#N)=CC32)c1 (racemic) | in the range around 5.5 nM |

Results, then the molecule that gave them:

| Ki | SMILES |
| --- | --- |
| in the range around 5.5 nM | COc1ccc(S(=O)(=O)N2C(=O)C(c3ccccc3OC)(N3CC4(CN(C5CCN(C)CC5)C4)C3)C3C=C(C#N)C=CC32)nc1 (racemic) |
| in the range around 5.5 nM | COc1ccc(S(=O)(=O)N2C(=O)C(c3ccc(F)cc3OC)(N3CC4(CN(C5CCN(C)CC5)C4)C3)C3C=C(C#N)C=CC32)nc1 (stereo not given) |
| in the range around 5.5 nM | COc1ccc(S(=O)(=O)N2C(=O)C(c3cccnc3OC)(N3CC4(CN(C5CCN(C)CC5)C4)C3)C3C=C(C#N)C=CC32)nc1 (racemic; form 2) |
| in the range around 5.5 nM | COc1ccc(S(=O)(=O)N2C(=O)C(c3cccnc3OC)(N3CC4(CN(C5CCN(C)CC5)C4)C3)C3C=C(C#N)C=CC32)nc1 (racemic; form 1) |
| in the range around 5.5 nM | COc1ccc(S(=O)(=O)N2C(=O)C(c3ccccc3OC)(N3CC4(CN(C5CCN(C6COC6)CC5)C4)C3)C3C=C(C#N)C=CC32)nc1 (single isomer, unassigned; (+)) |
| in the range around 5.5 nM | COc1ccc(S(=O)(=O)N2C(=O)C(c3ccccc3OC)(N3CC4(CN(N5CCN(C)CC5)C4)C3)C3C=C(C#N)C=CC32)nc1 (racemic) |
| in the range around 5.5 nM | CCOc1ncccc1C1(N2CC3(CN(N4CCN(C)CC4)C3)C2)C(=O)N(S(=O)(=O)c2ccc(OC)cn2)C2C=CC(C#N)=CC21 (racemic) |
